molecular target: GST-tagged-Wee1 kinase (Homo sapiens, UniProt P30291); assay: Wee1 time-resolved fluorescence equilibrium binding assay (displacement of Oregon Green-labeled ATP-competitive kinase probe)
Description: Wee1 kinase was assayed using a time-resolved fluorescence equilibrium binding assay monitoring displacement of a rapidly reversible Oregon Green-labeled ATP-competitive kinase probe (N-(2-(2-(2-(4-(4-(5-chloro-4-(2-(1-hydroxycyclobutyl)thiazol-5-yl)-1H-pyrrolo[2,3-b]pyridin-2-yl)phenyl)piperazin-1-yl)ethoxy)ethoxy)ethyl)-2′,7′-difluoro-3′,6′-dihydroxy-3-oxo-3H-spiro[isobenzofuran-1,9′-xanthene]-5-carboxamide) by competitive Wee1 inhibitors.

Chain of GST-tagged-Wee1 kinase (P30291 whole entry): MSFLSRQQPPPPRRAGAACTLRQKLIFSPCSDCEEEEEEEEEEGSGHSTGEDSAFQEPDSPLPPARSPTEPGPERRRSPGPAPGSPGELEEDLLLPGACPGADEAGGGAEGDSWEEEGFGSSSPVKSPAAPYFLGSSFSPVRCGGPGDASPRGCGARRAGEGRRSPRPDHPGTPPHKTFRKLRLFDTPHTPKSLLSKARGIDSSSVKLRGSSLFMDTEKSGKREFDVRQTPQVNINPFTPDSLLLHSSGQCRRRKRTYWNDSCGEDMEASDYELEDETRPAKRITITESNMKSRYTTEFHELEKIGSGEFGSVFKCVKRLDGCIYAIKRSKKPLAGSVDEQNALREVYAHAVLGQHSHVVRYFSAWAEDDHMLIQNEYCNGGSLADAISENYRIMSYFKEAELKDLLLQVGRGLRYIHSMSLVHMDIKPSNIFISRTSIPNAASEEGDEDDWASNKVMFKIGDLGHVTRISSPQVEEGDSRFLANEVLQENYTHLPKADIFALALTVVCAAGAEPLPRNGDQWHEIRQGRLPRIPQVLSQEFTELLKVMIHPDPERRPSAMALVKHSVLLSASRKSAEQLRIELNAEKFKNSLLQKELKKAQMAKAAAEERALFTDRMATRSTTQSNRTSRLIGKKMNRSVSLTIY

Row | Compound | Ki
1 | NCCn1ccc(-c2nn(-c3c(Cl)cccc3Cl)c(=O)c3cnc(Nc4ccc(N5CCNCC5)cc4)nc23)n1 [Example 259, 8-[1-(2-aminoethyl)-1H-pyrazol-3-yl]-6-(2,6-dichlorophenyl)-2-{[4-(piperazin-1-yl)phenyl]amino}pyrimido[4,5-d]pyridazin-5(6H)-one] | 200 pM
2 | CNCCn1ccc(-c2nn(-c3c(Cl)cccc3Cl)c(=O)c3cnc(Nc4ccc(N5CCN(C)CC5)cc4)nc23)n1 [Example 261, 6-(2,6-dichlorophenyl)-8-{1-[2-(methylamino)ethyl]-1H-pyrazol-3-yl}-2-{[4-(4-methylpiperazin-1-yl)phenyl]amino}pyrimido[4,5-d]pyridazin-5(6H)-one] | 300 pM
3 | CN1Cc2cc(Nc3ncc4c(=O)n(C5CCCCC5)nc(-c5ccccn5)c4n3)ccc2C(C)(C)C1 [Example 262, 6-cyclohexyl-8-(pyridin-2-yl)-2-[(2,4,4-trimethyl-1,2,3,4-tetrahydroisoquinolin-7-yl)amino]pyrimido[4,5-d]pyridazin-5(6H)-one] | 590000 pM
4 | CC1(C)CNCc2cc(Nc3ncc4c(=O)n(-c5c(Cl)cccc5Cl)nc(-c5ccccn5)c4n3)ccc21 [Example 263, 6-(2,6-dichlorophenyl)-2-[(4,4-dimethyl-1,2,3,4-tetrahydroisoquinolin-7-yl)amino]-8-(pyridin-2-yl)pyrimido[4,5-d]pyridazin-5(6H)-one] | 300 pM
5 | CC1(C)CNCc2cc(Nc3ncc4c(=O)n(-c5ccccn5)nc(-c5ccccn5)c4n3)ccc21 [Example 264, 2-[(4,4-dimethyl-1,2,3,4-tetrahydroisoquinolin-7-yl)amino]-6,8-di(pyridin-2-yl)pyrimido[4,5-d]pyridazin-5(6H)-one] | 12000 pM
6 | COCn1ccc(-c2nn(-c3c(Cl)cccc3Cl)c(=O)c3cnc(Nc4ccc(N5CCN(C)CC5)cc4)nc23)n1 [Example 268, 6-(2,6-dichlorophenyl)-8-[1-(methoxymethyl)-1H-pyrazol-3-yl]-2-{[4-(4-methylpiperazin-1-yl)phenyl]amino}pyrimido[4,5-d]pyridazin-5(6H)-one] | 100 pM
7 | CN1CCN(c2ccc(Nc3ncc4c(=O)n(-c5c(Cl)cccc5Cl)nc(-c5ccn(CCO)n5)c4n3)cc2)CC1 [Example 270, 6-(2,6-dichlorophenyl)-8-[1-(2-hydroxyethyl)-1H-pyrazol-3-yl]-2-{[4-(4-methylpiperazin-1-yl)phenyl]amino}pyrimido[4,5-d]pyridazin-5(6H)-one] | < 1000 pM
8 | CN1CCN(c2ccc(Nc3ncc4c(=O)n(-c5c(Cl)cccc5Cl)nc(-c5cnccn5)c4n3)cc2)CC1 [Example 271, 6-(2,6-dichlorophenyl)-2-{[4-(4-methylpiperazin-1-yl)phenyl]amino}-8-(pyrazin-2-yl)pyrimido[4,5-d]pyridazin-5(6H)-one] | 400 pM

Other lines, results leading:

Row | Ki | Compound
9 | 2000 pM | C=CCn1nc(-c2ccco2)c2nc(Nc3ccc4c(c3)CN(C)CC4)ncc2c1=O [Example 258, 8-(furan-2-yl)-2-[(2-methyl-1,2,3,4-tetrahydroisoquinolin-7-yl)amino]-6-(prop-2-en-1-yl)pyrimido[4,5-d]pyridazin-5(6H)-one]
10 | 200 pM | CN1CCN(c2ccc(Nc3ncc4c(=O)n(-c5c(Cl)cccc5Cl)nc(-c5ccnc(Cl)c5)c4n3)cc2)CC1 [Example 260, 8-(2-chloropyridin-4-yl)-6-(2,6-dichlorophenyl)-2-{[4-(4-methylpiperazin-1-yl)phenyl]amino}pyrimido[4,5-d]pyridazin-5(6H)-one]
11 | 240000 pM | O=c1c2cnc(Nc3ccc(N4CCNCC4)cc3)nc2c(-c2ccccn2)nn1CCO [Example 267, 6-(2-hydroxyethyl)-2-{[4-(piperazin-1-yl)phenyl]amino}-8-(pyridin-2-yl)pyrimido[4,5-d]pyridazin-5(6H)-one]
12 | 58000 pM | C=CCn1nc(-c2ccco2)c2nc(Nc3ccc(N4CCCC4=O)cc3)ncc2c1=O [Example 269, 8-(furan-2-yl)-2-{[4-(2-oxopyrrolidin-1-yl)phenyl]amino}-6-(prop-2-en-1-yl)pyrimido[4,5-d]pyridazin-5(6H)-one]
